# Test results taken from US20250011809A1, “VIRAL VECTOR PRODUCTION” (Cell Therapy Catapult Limited, priority 2021, published 2025).
# Values joined by “and” are separate entries in the source; they are usually repeats but may differ in a detail not shown here. Equal values may be shown once. Ends that are not written are not given here.
# How the values were obtained:
# Type in all cases: cell-based, human
# HEK293 cells = test: Viability of adherent HEK293 cells after transfection with GFP reporter plasmid (Example 1); settings: 3 days after transfection with 50 ng GFP plasmid; RALA N:P10, PEIpro 3:1; FIG. 1
# Procedure: HEK293 cells were seeded at a density of 1×10^5 cells per well on 24 well plates. 24 hrs later, cells were transfected with 50 ng of plasmid encoding a GFP reporter gene, either complexed with RALA (SEQ ID NO: 1) at N:P10 (14.5 μg of RALA is complexed per 1 μg of DNA) or using PEIpro at a 3:1 ratio. The cells were stained to assess cell viability after 3 days.
# HEK293-F cells = test: HEK293-F cell count and viability by flow cytometry after transfection in suspension culture (Example 5); design: viability at 24 h / viability at 48 h / viability at 72 h: concentration or dose not given beside the values
# Procedure: (§1) HEK293-F cells were seeded into shake flasks with a 20 mL serum-free BalanCD medium at working volume at a cell concentration of 1×10^6/mL for lentiviral production and 2×10^6/mL for AAV production. Transfection with the plasmids for AAV1, AAV2, LV (two experimental replicates, LV1 and LV2) were carried out using PEI-Pro or RALA peptides as set out in Table 8 below.
# (§2) The HEK293-F cell counts were determined using flow cytometry immediately prior to transfection, and then at 24 hrs, 48 hrs and 72 hrs post transfection.
# [1] = as above; design: viability at 24 h / viability at 48 h / viability at 72 h: concentration or dose not given beside the values; settings: human, HEK293-F cells in suspension culture (shake flasks); for viability at 24 h: 24 h post-transf; for viability at 48 h: 48 h post-transf; for viability at 72 h: 72 h post-transf
# Procedure: as §1, §2
# [2] = AAV1 plasmids, 24 h post-transf
# [3] = AAV1 plasmids, 48 h post-transf
# [4] = AAV1 plasmids, 72 h post-transf
# [5] = AAV2 plasmids, 24 h post-transf
# [6] = AAV2 plasmids, 48 h post-transf
sequence,measurement,setting,value
WEARLARALARALARHLARALARALRACEA [RALA],viability of adherent HEK293 cells,HEK293 cells,significantly greater
same,Count,HEK293-F cells; [2],3.63E+06 and 3.52E+06
same,Via %,HEK293-F cells; [2],88.2%
same,Count,HEK293-F cells; [3],4.14E+06 and 3.39E+06
same,Via %,HEK293-F cells; [3],83.9%
same,Count,HEK293-F cells; [4],5.82E+06 and 5.55E+06
same,Via %,HEK293-F cells; [4],82.5%
same,Count,HEK293-F cells; [5],3.57E+06 and 3.37E+06
same,Via %,HEK293-F cells; [5],89.1%
same,Count,HEK293-F cells; [6],3.81E+06 and 4.07E+06
same,Via %,HEK293-F cells; [6],84.8%
same,Via %,"HEK293-F cells; AAV2 plasmids, 72 h post-transf",76.5%
same,Count,"HEK293-F cells; LV plasmids, 24 h post-transf",2.31E+06 and 2.05E+06
same,Via %,"HEK293-F cells; LV plasmids, 24 h post-transf",92.7%
same,Count,"HEK293-F cells; LV plasmids, 48 h post-transf",3.42E+06 and 2.83E+06
same,Via %,"HEK293-F cells; LV plasmids, 48 h post-transf",88.6%
same,Via %,"HEK293-F cells; LV plasmids, 72 h post-transf",89.6% and 86%
same,viability at 24 h,[1]; AAV1 plasmids,90%
same,viability at 48 h,[1]; AAV1 plasmids,86.1%
same,viability at 72 h,[1]; AAV1 plasmids,83.1%
same,viability at 24 h,[1]; AAV2 plasmids,87.7%
same,viability at 48 h,[1]; AAV2 plasmids,81.6%
same,viability at 72 h,[1]; AAV2 plasmids,76%
same,viability at 24 h,[1]; LV plasmids,92%
same,viability at 48 h,[1]; LV plasmids,92%
